Measured values reported in the kinase profiling compilation of Christmann-Franck et al. (2016).
Blank lines part the entries; values can stand above or below the compound they belong to.

Tests used:
Assay in all cases: Caliper, Mobility shift assay off-chip
AURKC (human) = AURKC (human) (UniProt Q9UQB9); conditions: compound 10.0 µM
BRAF (human) = BRAF (human) (UniProt P15056); conditions: compound 10.0 µM
CDC7 (human) = CDC7 (human) (UniProt O00311); conditions: compound 10.0 µM
CDK4 (human) = CDK4 (human) (UniProt P11802); conditions: compound 10.0 µM
CDK4 (human), sequence (P11802 whole entry, looked up): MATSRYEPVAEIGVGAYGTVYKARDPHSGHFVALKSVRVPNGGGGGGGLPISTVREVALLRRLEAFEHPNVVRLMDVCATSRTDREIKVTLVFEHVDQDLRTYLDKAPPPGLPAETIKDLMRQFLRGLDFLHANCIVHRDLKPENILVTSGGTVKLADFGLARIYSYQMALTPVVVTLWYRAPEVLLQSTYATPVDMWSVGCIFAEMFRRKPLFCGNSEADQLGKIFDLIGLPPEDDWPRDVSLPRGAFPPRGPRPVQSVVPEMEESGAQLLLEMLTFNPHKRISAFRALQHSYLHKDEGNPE

CSNK1A1 (rat) = conditions: compound 10.0 µM; accession and sequence are those of the human protein
CSNK2A1 (human) = CSNK2A1 (human) (UniProt P68400); conditions: compound 10.0 µM
DYRK1A (rat) = conditions: compound 10.0 µM; accession and sequence are those of the human protein
ERBB2 (human) = ERBB2 (human) (UniProt P04626); conditions: compound 10.0 µM
MAP2K1 (rabbit) = conditions: compound 10.0 µM; accession and sequence are those of the human protein
MAP3K14 (human) = MAP3K14 (human) (UniProt Q99558); conditions: compound 10.0 µM
MAP3K8 (human) = MAP3K8 (human) (UniProt P41279); conditions: compound 10.0 µM
MARK4 (human) = MARK4 (human) (UniProt Q96L34); conditions: compound 10.0 µM
NTRK3 (human) = NTRK3 (human) (UniProt Q16288); conditions: compound 10.0 µM
PAK1 (human) = PAK1 (human) (UniProt Q13153); conditions: compound 10.0 µM
PBK (human) = PBK (human) (UniProt Q96KB5); conditions: compound 10.0 µM
PBK (human), sequence (Q96KB5 whole entry, looked up): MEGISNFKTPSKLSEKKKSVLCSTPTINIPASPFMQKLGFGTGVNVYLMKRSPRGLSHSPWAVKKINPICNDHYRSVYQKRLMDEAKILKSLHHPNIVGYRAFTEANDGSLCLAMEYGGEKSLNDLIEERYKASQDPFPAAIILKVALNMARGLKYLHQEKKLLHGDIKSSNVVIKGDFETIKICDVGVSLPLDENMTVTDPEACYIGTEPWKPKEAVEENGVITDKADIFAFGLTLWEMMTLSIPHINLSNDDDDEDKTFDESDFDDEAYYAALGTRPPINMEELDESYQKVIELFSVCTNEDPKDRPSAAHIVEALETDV

PHKG1 (rabbit) = conditions: compound 10.0 µM; accession and sequence are those of the human protein
PRKAA1 (human) = PRKAA1 (human) (UniProt Q13131); conditions: compound 10.0 µM
PRKAA1 (human), sequence (Q13131 whole entry, looked up): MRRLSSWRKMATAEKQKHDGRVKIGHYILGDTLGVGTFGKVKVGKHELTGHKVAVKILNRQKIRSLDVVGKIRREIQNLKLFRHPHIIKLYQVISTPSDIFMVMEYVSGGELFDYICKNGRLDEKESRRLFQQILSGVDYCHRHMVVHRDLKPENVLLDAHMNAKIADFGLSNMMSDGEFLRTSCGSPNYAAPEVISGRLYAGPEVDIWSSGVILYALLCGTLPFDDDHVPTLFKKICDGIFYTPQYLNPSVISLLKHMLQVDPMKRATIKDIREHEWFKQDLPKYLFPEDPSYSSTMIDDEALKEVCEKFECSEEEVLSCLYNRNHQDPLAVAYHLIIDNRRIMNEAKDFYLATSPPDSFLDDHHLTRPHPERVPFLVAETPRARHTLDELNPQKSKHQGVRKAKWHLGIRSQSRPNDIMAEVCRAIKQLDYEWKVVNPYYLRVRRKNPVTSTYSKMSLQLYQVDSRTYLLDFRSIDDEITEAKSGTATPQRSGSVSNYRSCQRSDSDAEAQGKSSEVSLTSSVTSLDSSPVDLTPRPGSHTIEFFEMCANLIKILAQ

PRKDC (human) = PRKDC (human) (UniProt P78527); conditions: compound 10.0 µM
ROCK2 (rat) = conditions: accession and sequence are those of the human protein
RPS6KA1 KD1 KD2 (rat) = conditions: accession and sequence are those of the human protein
[1] = test system: RPS6KB1 (human), P23443 [T412E]; conditions: compound 10.0 µM
SGK1 (human) = SGK1 (human) (UniProt O00141); conditions: compound 10.0 µM
[2] = test system: ABL1 (human), P00519 [M351T]
[3] = test system: ABL1 (human), P00519 [Y253F]
BLK (mouse) = conditions: accession and sequence are those of the human protein
CLK2 (human) = CLK2 (human) (UniProt P49760)
CLK2 (human), sequence (P49760 whole entry, looked up): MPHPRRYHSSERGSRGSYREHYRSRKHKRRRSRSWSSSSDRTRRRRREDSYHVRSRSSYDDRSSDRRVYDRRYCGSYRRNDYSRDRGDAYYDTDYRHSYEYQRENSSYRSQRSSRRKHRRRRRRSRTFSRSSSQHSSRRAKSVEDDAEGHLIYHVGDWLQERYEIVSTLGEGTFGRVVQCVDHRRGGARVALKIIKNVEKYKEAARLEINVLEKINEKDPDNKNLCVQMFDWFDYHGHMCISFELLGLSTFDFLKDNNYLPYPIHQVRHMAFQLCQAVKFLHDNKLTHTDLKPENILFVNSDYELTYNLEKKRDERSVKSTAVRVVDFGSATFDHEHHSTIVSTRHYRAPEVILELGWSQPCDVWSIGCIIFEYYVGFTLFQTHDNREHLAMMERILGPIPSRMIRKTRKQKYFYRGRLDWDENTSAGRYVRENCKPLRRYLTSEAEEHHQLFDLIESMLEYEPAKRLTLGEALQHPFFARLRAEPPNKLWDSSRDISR

GRK7 (human) = GRK7 (human) (UniProt Q8WTQ7)
GRK7 (human), sequence (Q8WTQ7 whole entry, looked up): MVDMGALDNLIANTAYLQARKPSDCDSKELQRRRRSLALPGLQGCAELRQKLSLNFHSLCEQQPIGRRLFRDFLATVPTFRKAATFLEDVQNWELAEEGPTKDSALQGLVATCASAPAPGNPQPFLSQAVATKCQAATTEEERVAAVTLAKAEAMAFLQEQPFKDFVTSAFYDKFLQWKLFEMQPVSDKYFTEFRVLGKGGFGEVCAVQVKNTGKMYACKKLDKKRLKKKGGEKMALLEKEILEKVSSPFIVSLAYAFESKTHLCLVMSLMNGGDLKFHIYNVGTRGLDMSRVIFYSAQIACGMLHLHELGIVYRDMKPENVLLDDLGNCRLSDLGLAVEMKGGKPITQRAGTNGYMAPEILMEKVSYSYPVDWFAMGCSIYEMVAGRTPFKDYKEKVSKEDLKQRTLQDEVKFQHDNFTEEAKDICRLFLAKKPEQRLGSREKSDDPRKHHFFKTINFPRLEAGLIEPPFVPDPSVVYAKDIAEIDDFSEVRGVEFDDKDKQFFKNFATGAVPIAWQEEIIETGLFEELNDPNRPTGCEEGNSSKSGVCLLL

MAP2K4 (mouse) = conditions: compound 10.0 µM; accession and sequence are those of the human protein
TEC (human) = TEC (human) (UniProt P42680); conditions: compound 10.0 µM
ULK2 (human) = ULK2 (human) (UniProt Q8IYT8)
ULK2 (human), sequence (Q8IYT8 whole entry, looked up): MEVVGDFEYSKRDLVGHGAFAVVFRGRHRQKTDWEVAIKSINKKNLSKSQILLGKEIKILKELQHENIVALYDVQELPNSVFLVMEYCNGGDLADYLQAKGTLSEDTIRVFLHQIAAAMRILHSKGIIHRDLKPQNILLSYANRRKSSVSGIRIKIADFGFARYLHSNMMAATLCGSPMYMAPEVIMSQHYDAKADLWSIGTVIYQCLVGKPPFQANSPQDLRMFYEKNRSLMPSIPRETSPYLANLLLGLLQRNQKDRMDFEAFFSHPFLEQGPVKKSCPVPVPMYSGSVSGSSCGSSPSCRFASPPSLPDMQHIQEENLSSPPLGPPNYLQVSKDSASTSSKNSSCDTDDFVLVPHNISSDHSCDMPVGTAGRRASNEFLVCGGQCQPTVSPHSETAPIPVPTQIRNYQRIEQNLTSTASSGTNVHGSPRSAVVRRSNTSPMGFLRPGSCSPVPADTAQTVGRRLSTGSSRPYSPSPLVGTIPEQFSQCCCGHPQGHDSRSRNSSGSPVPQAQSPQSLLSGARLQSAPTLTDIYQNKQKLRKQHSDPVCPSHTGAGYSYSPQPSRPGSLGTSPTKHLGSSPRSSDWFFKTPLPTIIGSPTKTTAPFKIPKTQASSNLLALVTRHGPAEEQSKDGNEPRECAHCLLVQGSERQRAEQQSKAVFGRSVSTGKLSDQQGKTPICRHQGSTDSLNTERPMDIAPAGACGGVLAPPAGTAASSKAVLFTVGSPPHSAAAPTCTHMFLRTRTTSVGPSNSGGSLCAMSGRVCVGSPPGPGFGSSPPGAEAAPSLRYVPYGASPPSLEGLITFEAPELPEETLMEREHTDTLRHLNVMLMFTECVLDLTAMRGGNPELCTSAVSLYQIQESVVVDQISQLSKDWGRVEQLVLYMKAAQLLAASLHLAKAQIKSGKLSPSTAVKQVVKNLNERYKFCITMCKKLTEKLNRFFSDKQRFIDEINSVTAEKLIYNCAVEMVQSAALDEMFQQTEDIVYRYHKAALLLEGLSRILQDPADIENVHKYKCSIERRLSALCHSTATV

ABL1 (mouse) = conditions: compound 1.0 µM; accession and sequence are those of the human protein
ABL2 (mouse) = conditions: compound 1.0 µM; accession and sequence are those of the human protein
CSNK1A1 (human) = CSNK1A1 (human) (UniProt P48729); conditions: compound 1.0 µM
CSNK1A1 (human), sequence (P48729 whole entry, looked up): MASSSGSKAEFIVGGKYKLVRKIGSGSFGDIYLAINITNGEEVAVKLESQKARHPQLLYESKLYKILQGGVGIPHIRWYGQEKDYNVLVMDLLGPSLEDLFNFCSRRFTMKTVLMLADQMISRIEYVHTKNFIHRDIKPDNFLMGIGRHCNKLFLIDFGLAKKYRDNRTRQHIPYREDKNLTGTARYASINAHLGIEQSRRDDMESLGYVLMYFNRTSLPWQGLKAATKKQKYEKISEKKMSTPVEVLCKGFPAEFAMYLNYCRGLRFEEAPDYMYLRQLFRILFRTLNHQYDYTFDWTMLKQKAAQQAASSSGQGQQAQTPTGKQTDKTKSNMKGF

CSNK1A1 (yeast) = CSNK1A1 (yeast) (UniProt P48729); conditions: compound 1.0 µM; accession and sequence are those of the human protein
CSNK1A1 (yeast), sequence (P48729 whole entry, looked up): as above

LYN (mouse) = conditions: compound 1.0 µM; accession and sequence are those of the human protein
MAPK3 (human) = MAPK3 (human) (UniProt P27361); conditions: compound 1.0 µM
MYLK (human) = MYLK (human) (UniProt Q15746); conditions: compound 1.0 µM
PIK3CB (human) = PIK3CB (human) (UniProt P42338); conditions: compound 1.0 µM
PIK3CD (human) = PIK3CD (human) (UniProt O00329); conditions: compound 1.0 µM
PIK3CD (human), sequence (O00329 whole entry, looked up): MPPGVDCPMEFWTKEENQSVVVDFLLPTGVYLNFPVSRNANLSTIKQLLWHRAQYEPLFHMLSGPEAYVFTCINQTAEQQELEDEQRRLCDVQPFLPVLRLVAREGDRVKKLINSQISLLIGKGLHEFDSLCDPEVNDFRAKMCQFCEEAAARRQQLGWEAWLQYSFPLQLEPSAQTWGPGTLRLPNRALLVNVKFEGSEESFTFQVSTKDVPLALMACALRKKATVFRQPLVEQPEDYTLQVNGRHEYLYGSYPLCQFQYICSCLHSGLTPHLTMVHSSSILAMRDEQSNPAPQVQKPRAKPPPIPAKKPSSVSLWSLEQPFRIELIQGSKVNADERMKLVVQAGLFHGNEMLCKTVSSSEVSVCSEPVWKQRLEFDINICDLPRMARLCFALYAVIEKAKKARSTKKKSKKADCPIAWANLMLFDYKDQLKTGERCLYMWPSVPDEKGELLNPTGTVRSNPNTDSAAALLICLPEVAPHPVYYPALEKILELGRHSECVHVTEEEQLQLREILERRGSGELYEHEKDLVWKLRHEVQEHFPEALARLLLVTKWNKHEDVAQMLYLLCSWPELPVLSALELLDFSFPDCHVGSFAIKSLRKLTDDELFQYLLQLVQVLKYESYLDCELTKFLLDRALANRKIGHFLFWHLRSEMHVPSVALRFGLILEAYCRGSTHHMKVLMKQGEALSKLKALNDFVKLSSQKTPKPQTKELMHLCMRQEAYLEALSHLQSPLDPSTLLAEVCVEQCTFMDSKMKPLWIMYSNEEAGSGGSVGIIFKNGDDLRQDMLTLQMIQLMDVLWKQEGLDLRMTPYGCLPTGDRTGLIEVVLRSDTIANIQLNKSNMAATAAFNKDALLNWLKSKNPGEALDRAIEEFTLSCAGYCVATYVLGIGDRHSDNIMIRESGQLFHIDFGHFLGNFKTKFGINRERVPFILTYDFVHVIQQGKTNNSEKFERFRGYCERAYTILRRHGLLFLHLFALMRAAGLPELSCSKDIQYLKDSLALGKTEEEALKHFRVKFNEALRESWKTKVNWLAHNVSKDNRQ

PIK3CG (human) = PIK3CG (human) (UniProt P48736); conditions: compound 1.0 µM

AURKC (human), sequence (Q9UQB9 whole entry, looked up): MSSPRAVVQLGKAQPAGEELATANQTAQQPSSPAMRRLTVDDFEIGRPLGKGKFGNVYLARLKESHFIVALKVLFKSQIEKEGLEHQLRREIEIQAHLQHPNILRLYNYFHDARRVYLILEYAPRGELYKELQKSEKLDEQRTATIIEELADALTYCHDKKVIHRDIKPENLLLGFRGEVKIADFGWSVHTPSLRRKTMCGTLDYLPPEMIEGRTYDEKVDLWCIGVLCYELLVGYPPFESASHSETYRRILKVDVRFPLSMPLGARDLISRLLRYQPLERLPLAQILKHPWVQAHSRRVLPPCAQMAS

- residual activity (AURKC (human)): 4%
- residual activity (BRAF (human)): 114%
- residual activity (CDC7 (human)): 70%
- residual activity (CDK4 (human)): 21%
- residual activity (CSNK1A1 (rat)): 59%
- residual activity (CSNK2A1 (human)): 71%
- residual activity (DYRK1A (rat)): 64%
- residual activity (ERBB2 (human)): 130%
- residual activity (MAP2K1 (rabbit)): 30%
- residual activity (MAP3K14 (human)): 92%
- residual activity (MAP3K8 (human)): 87%
- residual activity (MARK4 (human)): 25%
- residual activity (NTRK3 (human)): 2%
- residual activity (PAK1 (human)): 73%
- residual activity (PBK (human)): 10%
- residual activity (PHKG1 (rabbit)): 6%
- residual activity (PRKAA1 (human)): 5%
- residual activity (PRKDC (human)): 97%
- residual activity (ROCK2 (rat); compound 10.0 µM): 21%
- residual activity (RPS6KA1 KD1 KD2 (rat); compound 10.0 µM): 10%
- residual activity [1]: 11%
- residual activity (SGK1 (human)): 3%
SMILES: CC(C)(C)c1nc2c3ccc(F)cc3c3c(=O)[nH]ccc3c2[nH]1

SMILES: O=C(N[C@@H](COc1ccc2[nH]c(=O)[nH]c2c1)c1ccccc1)c1cccn(Cc2ccc(F)c(F)c2)c1=O
- residual activity ([2]; compound 10.0 µM): 110%
- residual activity ([3]; compound 10.0 µM): 110%
- residual activity (BLK (mouse); compound 10.0 µM): 94%
- residual activity (CLK2 (human); compound 10.0 µM): 100%
- residual activity (GRK7 (human); compound 10.0 µM): 108%
- residual activity (MAP2K4 (mouse)): 112%
- residual activity (TEC (human)): 91%
- residual activity (ULK2 (human); compound 10.0 µM): 110%

- residual activity ([2]; compound 1.0 µM): 50%
- residual activity ([3]; compound 1.0 µM): 60%
- residual activity (CLK2 (human); compound 1.0 µM): 67%
- residual activity (GRK7 (human); compound 1.0 µM): 90%
- residual activity (ULK2 (human); compound 1.0 µM): 30%
SMILES: C[C@@H](Nc1nc2c(C#CC3CC3)c[nH]c(=O)c2c2cc(-c3cn[nH]c3)ccc12)C(C)(C)C

- residual activity (ABL1 (mouse)): 98%
- residual activity (ABL2 (mouse)): 110%
- residual activity (BLK (mouse); compound 1.0 µM): 92%
- residual activity (CSNK1A1 (human)): 111%
- residual activity (CSNK1A1 (yeast)): 69%
- residual activity (LYN (mouse)): 69%
- residual activity (MAPK3 (human)): 89%
- residual activity (MYLK (human)): 68%
- residual activity (PIK3CB (human)): 100%
- residual activity (PIK3CD (human)): 95%
- residual activity (PIK3CG (human)): 116%
- residual activity (ROCK2 (rat); compound 1.0 µM): 88%
- residual activity (RPS6KA1 KD1 KD2 (rat); compound 1.0 µM): 6%
SMILES: Cc1n[nH]c2c1c(=O)n(CCCN)c1ccc(Cl)cc21
